# Experimental data from ChEMBL document CHEMBL1129208, “Synthesis and activity of 2,6,9-trisubstituted purines” (Bioorg Med Chem Lett, 1997).
# Several values for one entry are separate records, joined by “and”; a condition that tells them apart may be missing. Equal entries are not always repeated.
# Molecular target: Cyclin-dependent kinase 2/cyclin E (Homo sapiens, UniProt P24941)
# Assay: Inhibitory concentration against cyclin dependent kinase-2 (CDK2)/Cyclin E
# Assay type: protein-complex assay
row,Structure (SMILES),IC50
1,COc1ccc(CNc2nc(N3CCCC3)nc3c2ncn3C(C)C)cc1,5000 nM
2,COc1ccc(CNc2nc(NCCO)nc3c2ncn3C(C)C)cc1,1500 nM
3,CC(C)n1cnc2c(NCc3ccc(-c4ccccc4)cc3)nc(NCC(O)CO)nc21 (configuration not stated),600 nM
4,CC(C)n1cnc2c(NCCCc3ccccc3)nc(N(CCO)CCO)nc21,> 5000 nM
5,CC(C)n1cnc2c(NCc3ccc(-c4ccccc4)cc3)nc(NCc3ccco3)nc21,> 5000 nM
6,CC(C)Cn1cnc2c(N(C)c3cccnc3)nc(Cl)nc21,> 5000 nM
7,COc1ccc(CNc2nc(N3CCC(O)C3)nc3c2ncn3C(C)C)cc1 (configuration not stated),> 5000 nM
8,ClCCCCNc1[nH]c(Cl)nc2ncnc1-2,> 5000 nM
9,CC(C)n1cnc2c(NCc3ccc(C4=CC(=S)CC=C4)cc3)nc(N(CCO)CCO)nc21,> 5000 nM
10,CC(C)n1cnc2c(N(C)Cc3ccc(-c4ccccc4)cc3)nc(Cl)nc21,> 5000 nM
11,Cn1cnc2c(NCCc3ccccc3)nc(Cl)nc21,> 5000 nM
12,COCCNc1nc(Cl)nc2c1ncn2C,> 5000 nM
13,COc1ccc(CNc2nc(N(CCO)CCO)nc3c2ncn3Cc2ccccc2-c2ccccc2)cc1,> 5000 nM
14,Cn1cnc2c(NCc3cccnc3)nc(Cl)nc21,> 5000 nM
15,COc1ccc(CNc2nc(N(Cc3cccnc3)CC(C)C#N)nc3c2ncn3C(C)C)cc1 (configuration not stated),1000 nM
16,CC(C)n1cnc2c(NCc3ccc(-c4cccs4)cc3)nc(N(CCO)CCO)nc21,600 nM
17,CC(C)n1cnc2c(Nc3ccc(-c4ccccc4)cc3)nc(N(CCO)CCO)nc21,600 nM
18,Cn1cnc2c(NC3CCN(Cc4ccccc4)CC3)nc(Cl)nc21,> 5000 nM
19,CN(c1ccncc1)c1nc(Cl)nc2c1ncn2C1CCCC1,> 5000 nM
20,O=C1c2ccccc2C(=O)N1CCNc1nc(Cl)nc2nc[nH]c12,> 5000 nM
21,Cn1cnc2c(NC3CCCC3)nc(Cl)nc21,> 5000 nM
22,CC(C)n1cnc2c(Nc3ccccc3)nc(N(CCO)CCO)nc21,2000 nM
23,COc1ccc(CNc2nc(NCCc3c[nH]c4ccccc34)nc3c2ncn3C(C)C)cc1,2000 nM
24,COc1ccc(CNc2nc(N(CCO)CCO)nc3c2ncn3Cc2cccc([N+](=O)[O-])c2)cc1,2000 nM

row,Structure (SMILES),IC50
1,COCCCNc1nc(Cl)nc2c1ncn2C,> 5000 nM
2,CC(C)n1cnc2c(NCc3ccc4c(c3)OCO4)nc(N(CCO)CCO)nc21,800 nM
3,COc1ccc(CNc2nc(N(CCO)CCO)nc3c2ncn3CCO)cc1,1000 nM
4,CC(C)n1cnc2c(Nc3nc4ccccc4s3)nc(Cl)nc21,> 5000 nM
5,N#CCCCNc1nc(Cl)nc2nc[nH]c12,> 5000 nM
6,Cn1cnc2c(NCCCCCCO)nc(Cl)nc21,> 5000 nM
7,FC(F)(F)n1cnc2c(NCc3ccc(Cl)cc3)nc(Cl)nc21,1000 nM
8,COc1ccc(CNc2nc(NCC(O)CO)nc3c2ncn3C(C)C)cc1 (configuration not stated),2000 nM
9,COc1ccc(CNc2nc(N3CCC(O)CC3)nc3c2ncn3C(C)C)cc1,2000 nM
10,COc1ccc(CNc2nc(Cl)nc3c2ncn3Cc2ccc(-c3ccccc3)cc2)cc1,> 5000 nM
11,COc1ccc(CNc2nc(N(CCO)CCO)nc3c2ncn3Cc2ccc([N+](=O)[O-])cc2)cc1,2000 nM
12,COc1ccc(CNc2nc(N(C)CC(O)c3ccc(O)c(O)c3)nc3c2ncn3C(C)C)cc1 (configuration not stated),3000 nM
13,C=CCN(CC=C)c1nc(NCc2ccc(OC)cc2)c2ncn(C(C)C)c2n1,> 5000 nM
14,COc1ccc(CNc2nc(N(CCO)CCO)nc3c2ncn3CC(C)C)cc1,2000 nM
15,CCn1cnc2c(NCCc3ccccc3)nc(Cl)nc21,> 5000 nM
16,CN(Cc1ccc(C(=O)O)cc1)c1[nH]c(Cl)nc2ncnc1-2,> 5000 nM
17,COc1ccc(CNc2nc(NC3CCCCC3O)nc3c2ncn3C(C)C)cc1 (configuration not stated),1000 nM
18,CC(C)n1cnc2c(Nc3ccc(Br)cc3)nc(N(CCO)CCO)nc21,1000 nM
19,CC(C)n1cnc2c(Nc3cnc4ccccc4c3)nc(N(CCO)CCO)nc21,2000 nM
20,CCCCc1ccc(CNc2nc(N(CCO)CCO)nc3c2ncn3C(C)C)cc1,2000 nM
21,COc1ccc(CNc2nc(N(CCO)CCO)nc3c2ncn3CC(O)CO)cc1 (configuration not stated),> 5000 nM
22,CC(C)n1cnc2c(Nc3ccc(Br)cc3)nc(Nc3ccc(Br)cc3)nc21,5000 nM
23,Cn1cnc2c(NCc3ccncc3)nc(Cl)nc21,> 5000 nM

# Further lines, results first:
row,IC50,Structure (SMILES)
1,4000 nM and 700 nM,COc1ccc(CNc2nc(Cl)nc3c2ncn3C)cc1
2,2000 nM,CCC(C)Cn1cnc2c(NCc3ccc(OC)cc3)nc(N(CCO)CCO)nc21 (configuration not stated)
3,2000 nM,COc1ccc(CNc2nc(N(CCO)CCO)nc3c2ncn3C2CCCC2)cc1
4,> 5000 nM,Cn1cnc2c(Nc3nc4ccccc4s3)nc(Cl)nc21
5,5000 nM,COCCN(CCOC)c1nc(NCc2ccc(-c3ccccc3)cc2)c2ncn(C(C)C)c2n1
6,2500 nM,COc1ccc(CNc2nc(NCCO)nc3c2ncn3C)cc1
7,> 5000 nM,Clc1nc(NCc2ccccc2)c2[nH]cnc2n1
8,> 5000 nM,COc1ccc(CNc2nc(N(C)CC(O)c3ccccc3)nc3c2ncn3C(C)C)cc1 (configuration not stated)
9,> 5000 nM,COc1ccc(CNc2nc(C3CC[C@@H](Cc4ccccc4N)N3)nc3c2ncn3C(C)C)cc1 (some centres not stated)
10,2000 nM,CC(C)n1cnc2c(NCc3ccc(Br)cc3)nc(N(CCO)CCO)nc21
11,1000 nM,CC(C)n1cnc2c(NCc3ccc(-c4ccccc4)cc3)nc(N(CCO)CCO)nc21
12,> 5000 nM,Cn1cnc2c(NC(C)(C)CO)nc(Cl)nc21
13,> 5000 nM,CC(C)n1cnc2c(NC3Cc4ccccc4C3)nc(N(CCO)CCO)nc21
14,2000 nM,CC(C)n1cnc2c(N(C)C3CC3)nc(N(CCO)CCO)nc21
15,4000 nM,COc1ccc(CNc2nc(N3CCCCC3CO)nc3c2ncn3C(C)C)cc1 (configuration not stated)
16,5000 nM,COc1ccc(CNc2nc(N(CCO)CCO)nc3c2ncn3Cc2ccc3ccccc3c2)cc1
17,3000 nM,CC(O)Nc1nc(NCc2ccc(-c3ccccc3)cc2)c2ncn(C(C)C)c2n1 (configuration not stated)
18,1000 nM,COc1ccc(CNc2nc(NC(O)CN)nc3c2ncn3C(C)C)cc1 (configuration not stated)
19,1000 nM,COc1ccc(CNc2nc(N(CCO)Cc3ccccc3)nc3c2ncn3C(C)C)cc1
20,500 nM,COc1ccc(CNc2nc(NC(C)(O)CO)nc3c2ncn3C(C)C)cc1 (configuration not stated)
21,5000 nM,CC(C)(C)OC(=O)Cn1cnc2c(NCc3ccc(-c4ccccc4)cc3)nc(N(CCO)CCO)nc21
22,> 5000 nM,CCCn1cnc2c(NCCCCCCO)nc(Cl)nc21
23,> 5000 nM,CC(C)n1cnc2c(Nc3cccc4cccnc34)nc(N(CCO)CCO)nc21
24,> 5000 nM,COc1ccc(CNc2nc(NCCN)nc3c2ncn3C(C)C)cc1
25,3000 nM,CCCCCCCC/C=C\CCCCCCCCn1cnc2c(NCc3ccc(OC)cc3)nc(N(CCO)CCO)nc21
